Experimental data: patent USRE35706E, “Lipophila derivatives of muramylpeptides having properties of activating macrophages and compositions containing them” (priority 1984, dated 1997)
Values joined by “and” are separate entries in the source; they are usually repeats but may differ in a detail not shown here. Equal values may be shown once.

What was measured:
[1] = test system: Klebsiella pneumoniae; assay: Anti-infectious activity in mice infected with Klebsiella pneumoniae; type: in vivo; settings: for protective activity against lethal Klebsiella pneumoniae infection in the mouse (in words): summary of observations
[2] = Retention of the muramylpeptide in liposomes suspended in MEM-FCS medium; type: physicochemical; settings: liposomes in MEM-FCS medium at 37° C.
Experimental: Liposomes produced under the same conditions, but with muramylpeptides labeled with tritium have enabled the following observations. […] The incorporation of the MDP-GDP and the stability of the latter, has also been verified in reaction tests with anti-MDP monoclonal antibodies. After incubation of these liposomes in the same medium at 37° C. for 72 hours, there is observed a constant agglutination of the liposomes with the antibody (95% of the liposome being agglutinated), this observation bearing witness to the practical absence of any loss of MDP-GDP. […] The leakage, if it was produced, would have been manifested by a decrease in the intensity of agglutination with time.

[3] = Pyrogenicity measurements on rabbits (European Pharmacopoea); type: in vivo, rabbit; settings: 1 mg/kg; groups of three rabbits, one value per animal; listed as 6 -0-GDP-MDPG-OnBu
Excerpt: Certain of the compounds according to the invention show at relatively high doses, a certain pyrogenicity, whose impact is however reduced, taking into account the particularly higher therapeutic index from which they appear to benefit. This being the case, the muramylpeptides in which the group of modification by the two lipophile chains is fixed to the 6 position of the saccharide group, and of which the peptide chain is terminated by a glutamy-alpha-ester-gamma-amide group, are particularly advantageous by reason of their more reduced pyrogenicity. Testimony thereof is borne by comparative pyrogenicity measurements carried out on groups of three rabits with the two compounds more particularly studied, according to the procedure of the European Pharmacopoea, Vol. 2, 1971, pages 58-60. In fact, the following results are obtained, expressed by temperature observations observed in experimental animals to which had previously been administered 1 mg/kg of the compounds studied: for the MDP-GDP : 1°;0.9° and 1° C.; for the 6 -0-GDP-MDPG-OnBu : 0.2°; 0.3° and 0.5° C.

[4] = test system: bovine serumal-bumin; assay: Adjuvant activity in the Swiss female mouse (passive hemagglutination titer); type: in vivo; settings: for Primary response 1.21: 100 micrograms with 500 micrograms bovine serum albumin at day 0, serums titrated in pools at day 21; for Secondary response 1.36: booster of 100 micrograms antigen alone at day 30, serums titrated separately at day 36
Experimental: At day 0, 100 micrograms of C474 were injected with 500 micrograms of bovine serumal-bumin. At day 30, the animals received a booster of 100 micrograms of antigen alone. The following results were obtained:
The titers are expressed in Log 2 of the passive hemagglutination titer. At day 21, the serums were titrated in pools; at day 36, they were titrated separately.

[5] = test system: Candida albicans; assay: Protective action in mice infected with Candida albicans; type: in vivo
[6] = Table X, 100 μg i.v. at day -1 (dose not given for MDP-L-Ala-GDP), 10^4 K. pneumoniae
[7] = Table XI, 100 μg/day/4 days i.v. (days -4, -3, -2 and -1), 2 × 10^6 Candida albicans

6-O-(beta, gamma-dipalmitoyl-L-glycerol)-capryl-N-acetyl-muramyl-L-alanyl-D-glutamine -n-butyl ester [6-0-GDP-aminocaproyl-MDPG-OnBu]
Protection (%) [1, 6]: 56% | Survival (15 d) [1, 6]: 9/16 | retention of the muramylpeptide in the liposomes (in words) [2]: Quite similar observations

6-O-(beta, gamma-dipalmitoyl-L-glyceryl)-N-acetyl-muramyl-L-alanyl-D-glutamine-n-buty l-ester [6-O-GDP-MDPG-OnBu]
pyrogenicity, temperature observations in experimental animals [3]: 0.2 °C and 0.3 °C and 0.5 °C | Primary response 1.21 [4]: 2.64 Log 2 of the passive hemagglut | Secondary response 1.36 [4]: 8.6 Log 2 of the passive hemagglut | Protection (%) ([1]; Table VII, aqueous suspension, 100 μg i.v. at day -1, 10^4 K. pneumoniae): 68.7% | Survival (15 d) ([1]; Table VII, aqueous suspension, 100 μg i.v. at day -1, mice infected i.v. with 10^4 K. pneumoniae): 22/32 | protective activity against lethal Klebsiella pneumoniae infection in the mouse (in words) [1]: protective activity comparable | retention of the muramylpeptide in the liposomes (in words) [2]: Quite similar observations

C[C@@H]1[C@H](O)[C@@H](C)/C=C/C=C/C=C/C=C/C=C/C=C/C=C/[C@H](O[C@@H]2O[C@H](C)[C@@H](O)[C@H](N)[C@@H]2O)C[C@@H]2O[C@](O)(C[C@@H](O)C[C@@H](O)[C@H](O)CC[C@@H](O)C[C@@H](O)CC(=O)O[C@H]1C)C[C@H](O)[C@H]2C(=O)O [Amphotericin B, reference compound]
Survival (10 d) ([5]; Table XI, Amphotericin B 3 μg subcutaneously on the day of infection, 2 × 10^6 Candida albicans i.v.): 2/16

CCCCCCCCCCCCCCCC(=O)OCC(COC(=O)[C@H](C)NC(=O)CC[C@@H](NC(=O)[C@@H](C)NC(=O)[C@@H](C)O[C@H]1[C@H](O)[C@@H](CO)OC(O)[C@@H]1NC(C)=O)C(N)=O)OC(=O)CCCCCCCCCCCCCCC (stereo partly drawn) [MDP(D,D)-L-Ala-GDP, alpha (N-acetyl-muramyl-D-alanyl-D-isoglutaminyl-L-alanine) beta, gamma-dipalmitoyl-sn-glycerol]
Protection (%) [1, 6]: 25% | protective activity against lethal Klebsiella pneumoniae infection in the mouse (in words) [1]: although active, is less so than MDP-L-Ala-GDP | retention of the muramylpeptide in the liposomes (in words) [2]: Quite similar observations

CCCCCCCCCCCCCCCC(=O)OC[C@@H](COC(=O)CC[C@@H](NC(=O)[C@H](C)NC(=O)[C@@H](C)O[C@H]1[C@H](O)[C@@H](CO)OC(O)[C@@H]1NC(C)=O)C(N)=O)OC(=O)CCCCCCCCCCCCCCC (stereo partly drawn) [MDP-GDP, alpha (N-acetyl-muramyl-L-alanyl-D-isoglutamine), beta, gamma-dipalmitoyl-sn-glycerol]
Primary response 1.21 [4]: 3.64 Log 2 of the passive hemagglut | Secondary response 1.36 [4]: 10.27 Log 2 of the passive hemagglut | Protection (%) ([1]; Table IX, 30 μg intravenously 24 hours before infection, 5 × 10^4 K. pneumoniae): 16% | protective activity when injected in liposomes (in words) ([1]; in liposomes, at 0.1 microgram): the most active | protective activity against lethal Klebsiella pneumoniae infection in the mouse (in words) [1]: protective activity comparable | Protection ([5]; Table XI, 100 μg/day/4 days i.v.): 19 | Survival (10 d) [5, 7]: 2/16 | Protection ([5]; Table XII, aqueous suspension 100 μg × 4): 75% | Survival (10 d) ([5]; Table XII, aqueous suspension 100 μg × 4 (days -4, -3, -2, -1), 10^6 Candida albicans): 6/8

CCCCCCCCCCCCCCCC(=O)OCC(COC(=O)[C@H](C)NC(=O)CC[C@@H](NC(=O)[C@H](C)NC(=O)[C@@H](C)O[C@H]1[C@H](O)[C@@H](CO)OC(O)[C@@H]1NC(C)=O)C(N)=O)OC(=O)CCCCCCCCCCCCCCC (stereo partly drawn) [MDP-L-Ala-GDP, alpha (N-acetyl-muramyl-L-alanyl-D-isoglutaminyl-L-alanine), beta, gamma-dipalmitoyl-sn-glycerol]
Protection (%) [1, 6]: 63% | retention of the muramylpeptide in the liposomes (in words) [2]: Quite similar observations

Gentamicin [reference compound]
Protection (%) ([1]; Table IX, Gentamicin 10 μg subcutaneously 2 hours after infection, 5 × 10^4 K. pneumoniae): 21%

alpha (N-acetyl-muramyl-D-alanyl-D-isoglutamine), beta, gamma-dipalmitoyl-sn-glycerol [MDP (D-D) - GDP]
protective activity against lethal Klebsiella pneumoniae infection in the mouse (in words) [1]: protective activity comparable | Survival (10 d) [5, 7]: 0/16 | retention of the muramylpeptide in the liposomes (in words) [2]: Quite similar observations
